The record followed here is US9763444B2, “Compositions and methods for repelling blood-sucking and biting insects, ticks and mites” (The United States of America, as represented by the …, priority 2013, dated 2017).

Assay [1] relates to Ae. aegypti. Kind of assay: Minimum Effective Dosage (MED) test on treated cloth, mosquito repellency. Format: in vivo, Aedes aegypti. The conditions noted are these: for Ae. aegypti Minimum Effective Dosage, F1 / Ae. aegypti Minimum Effective Dosage, M1 / Ae. aegypti Minimum Effective Dosage, M2 / Ae. aegypti Minimum Effective Dosage, Average: Table 2; for Ae. aegypti Minimum Effective Dosage, F1: human subject F1; for Ae. aegypti Minimum Effective Dosage, F1 / Ae. aegypti Minimum Effective Dosage, M1 / Ae. aegypti Minimum Effective Dosage, M2: highest concentration 1.500 mg/cm^2; for Ae. aegypti Minimum Effective Dosage, M1: human subject M1; for Ae. aegypti Minimum Effective Dosage, M2: human subject M2; for Ae. aegypti Minimum Effective Dosage, Average: mean of 3 volunteers. As to the method:
Bioassay for mosquito repellent activity: Repellency screening test for experimental chemicals were carried out to identify candidates that might be useful repellents. The repellent efficacy was compared to that of the standard repellent, DEET. Experimental compounds were assessed in one of two ways: (1) a range of concentration was evaluated to determine the minimum effective dosage (MED) which was the concentration threshold of where the repellent began to fail and allowed bites, or (2) a predetermined concentration of each repellent was applied to cloth and the activity was evaluated over several days (or in some cases months) (Katritzky, A. R., et al., Proc. Nat. Acad. Sci. (US), 105, 7359-7364 (2008); Katritzky, A. R., et al., Journal of Med. Entomol., 47: 924-938 (2010)). When conducting assays for repellency, a failure point was also predetermined for those measurements. Since experiments described herein used about 500 female mosquitoes per test, the failure point was set at 1% (equal to 5 bites) received during a test interval. From 3 to 5 volunteers participated in the screening of each set of chemicals.
Minimum Effective Dosage (MED) Test: The MED bioassays on treated cloth were a method of screening to determine the minimum amount of a repellent needed to prevent bites. Experimental compounds were prepared in solution by combining 0.15 g of experimental chemical with 2 mL of acetone in a 7.1 mL screwtop glass vial. This solution was then serially diluted to obtain nine concentrations when applied on to the cloth patch: 1.5, 0.75, 0.375, 0.187, 0.094, 0.047, 0.023, 0.011, and 0.006 mg/cm^2. The standard N,N-diethyl-3-methylbenzamide (DEET) was also tested at the same concentration levels to serve as a control and a comparison for relative repellency. A 50 cm^2 (5 cm×10 cm) patch of muslin cloth was rolled lengthwise and placed into each of the glass vials and scaled with a screwtop so it soaked up the solution. Just prior to the experiment, the pieces of treated cloth were removed from the vials, affixed to card stock tabs (5 cm×3 cm) with staples, and hung with masking tape on a rack to dry and allow acetone to evaporate. Volunteers wore a latex glove over their hands, a nylon stocking over their arm, and then wrapped a plastic Velcro-sealed sleeve over their entire forearm with a 32 cm^2 (4 cm×8 cm) window cut-out to allow mosquitoes to bite through. The nylon stocking acted as a barrier between the dried cloth and the skin, an additional precaution with experimental compounds. Dried cloth patches were stretched across the window in the plastic sleeve and held in place with masking tape. Volunteers placed their sleeve-covered arms into a screened cage for a one minute period with approximately 500 female Ae. aegypti mosquitoes that had been preselected for host-seeking behavior using a draw box (Posey, K. H., and C. E. Schreck, Mosquito News, 41: 566-568 (1981)). […] The MED recorded was the lowest passing concentration level tested for the experimental compound. […] All human volunteers in the study provided informed consent to participate of a protocol approved by the University of Florida Human Use Institutional Review Board (IRB #636-2005).

Assay [2] relates to Ae. aegypti. Kind of assay: Complete Protection Time test on treated cloth (duration of protection). Format: in vivo, Aedes aegypti. The conditions noted are these: Dosage 0.75 mg/cm^2 on cloth; for Duration of protection against Ae. aegypti, M-3 Days Protection: subject M-3. The method, then:
Bioassay for mosquito repellent activity: Repellency screening test for experimental chemicals were carried out to identify candidates that might be useful repellents. The repellent efficacy was compared to that of the standard repellent, DEET. Experimental compounds were assessed in one of two ways: (1) a range of concentration was evaluated to determine the minimum effective dosage (MED) which was the concentration threshold of where the repellent began to fail and allowed bites, or (2) a predetermined concentration of each repellent was applied to cloth and the activity was evaluated over several days (or in some cases months) (Katritzky, A. R., et al., Proc. Nat. Acad. Sci. (US), 105, 7359-7364 (2008); Katritzky, A. R., et al., Journal of Med. Entomol., 47: 924-938 (2010)). When conducting assays for repellency, a failure point was also predetermined for those measurements. Since experiments described herein used about 500 female mosquitoes per test, the failure point was set at 1% (equal to 5 bites) received during a test interval. From 3 to 5 volunteers participated in the screening of each set of chemicals. Complete Protection Time Test: Complete protection time (CPT) on treated cloth is a method of screening that is used to determine the repellent duration for experimental chemicals that have not been examined for safe use on humans. The standard repellent DEET was used as a positive control as a benchmark by which to compare the repellents. Experimental compounds were prepared in solution by combining 0.075 g of experimental chemical with 1 mL of acetone in a 7.1-mL screwtop glass vial. The same concentration level of DEET was also prepared in this way to serve as a control and a comparison for relative repellency. A 50 cm^2 (5 cm×10 cm) patch of muslin cloth was rolled lengthwise and placed into each of the glass vials and sealed with a screwtop so it soaked up the solution. Just prior to the experiment, the pieces of treated cloth were removed from the vials, affixed to card stock tabs (5 cm×3 cm) with staples, and hung with masking tape on a rack to dry and allowed the volatile acetone to evaporate. Similar to the MED tests, volunteers wore a latex glove over their hands, a nylon stocking over their arm, and then wrapped a plastic Velcro-sealed sleeve over their entire forearm with a 32 cm^2 (4 cm×8 cm) window cut-out to allow mosquitoes to bite through. Dried cloth patches were stretched across the window in the plastic sleeve and held in place with masking tape. Volunteers placed their sleeve-covered arms into a screened cage for a one minute period with approximately 500 female Ae. aegypti mosquitoes that had been preselected for host-seeking behavior using a draw box. A cloth patch that received a 1% bite through level, equal to 5 mosquitoes that bit out of 500 mosquitoes, was considered a failure at that concentration. If 0-4 bites were received, then the treated cloth was still considered to be repellent at that concentration. The duration was recorded as the number of days an experimental chemical received a passing result, with day 0 being the day the sample was first dried. […] As with the tests conducted to determine CPT, volunteers in the study provided informed consent (IRB protocol #636-2005). The protocol was approved by the University of Florida Human Use Institutional Review Board.

Regarding `CC1(C)C=Cc2cc(CCO)ccc2O1` [Compound 9], in the assay on Ae. aegypti [1], the “Ae. aegypti Minimum Effective Dosage, F1” value was determined as 0.375 mg/cm^2; the “Ae. aegypti Minimum Effective Dosage, M1” value is listed as 0.375 mg/cm^2; the “Ae. aegypti Minimum Effective Dosage, M2” value came out at 0.375 mg/cm^2; the “Ae. aegypti Minimum Effective Dosage, Average” value stood at 0.375 mg/cm^2. Also, in the assay with Ae. aegypti [2], the “Duration of protection, Proportion to DEET” value (from here on “Duration … to DEET”) is listed as 0.50 and the “Duration of protection against Ae. aegypti, M-3 Days Protection” value (from here on “Duration of protection … M-3 Days Protection”) amounted to 1 days.

`CC1(C)C=Cc2c(CO)ccc(Cl)c2O1` [Compound 11, (8-chloro-2,2-dimethyl-2H-chromen-5-yl)methanol]: the “mosquito repellent activity against Ae. aegypti (in words)” value in the assay with Ae. aegypti [1] (MED test on treated cloth) is on record as “act as mosquito repellents”. Further, in the assay on Ae. aegypti [1], the “Ae. aegypti Minimum Effective Dosage, F1” value came out at 0.011 mg/cm^2; the “Ae. aegypti Minimum Effective Dosage, M1” value was found to be 0.011 mg/cm^2; the “Ae. aegypti Minimum Effective Dosage, M2” value was 0.011 mg/cm^2; the “Ae. aegypti Minimum Effective Dosage, Average” value came to 0.011 mg/cm^2. Besides, the “Duration … to DEET” value in the assay on Ae. aegypti [2] stood at 1.00.

As to `CC1(C)C=Cc2c(C(=O)O)ccc(Cl)c2O1` [Compound 13, 8-chloro-2,2-dimethyl-2H-chromene-5-carboxylic acid], in the assay with Ae. aegypti [1], the “Ae. aegypti Minimum Effective Dosage, F1” value is on record as more than 1.500 mg/cm^2; the “Ae. aegypti Minimum Effective Dosage, M1” value is more than 1.500 mg/cm^2; the “Ae. aegypti Minimum Effective Dosage, M2” value was more than 1.500 mg/cm^2. Further, in the assay with Ae. aegypti [2], the “Duration … to DEET” value came out at 0.50 and the “Duration of protection … M-3 Days Protection” value was found to be 1 days.

With `CC1(C)C=Cc2cc(Cl)ccc2O1` [Compound 17], in the assay on Ae. aegypti [2], the “Duration … to DEET” value is recorded as 0.50 and the “Duration of protection … M-3 Days Protection” value stood at 1 days.
